Reference: US12653799B2, “Compositions and methods for treating Alzheimer's disease” (ELEANORE BENNETT CHARITABLE TRUST #2, priority 2021, dated 2026)
Entries after “also recorded” stand apart in the source; their conditions may differ.

How the values were obtained:
[1] = target: T1, PDK-Akt activation sequence (recombinant PDK-1 and Akt-1) (Homo sapiens, UniProt O15530); assay: In vitro drug screen of PS48-family compounds: PDK-1/Akt-1 activation sequence inhibited by Aβ42 ADDL oligomers (western readout); assay type: biochemical; conditions: for potency relative to PS48: based on Table 1 data; for GSK peptide and Akt T308 phosphorylations, Westerns of in vitro reaction mixture (FIG. 6A): compared to PS48; for fraction of control activity: compound 10 μM
T1 construct: purchased Amsbio
T1 sequence (O15530 1-556): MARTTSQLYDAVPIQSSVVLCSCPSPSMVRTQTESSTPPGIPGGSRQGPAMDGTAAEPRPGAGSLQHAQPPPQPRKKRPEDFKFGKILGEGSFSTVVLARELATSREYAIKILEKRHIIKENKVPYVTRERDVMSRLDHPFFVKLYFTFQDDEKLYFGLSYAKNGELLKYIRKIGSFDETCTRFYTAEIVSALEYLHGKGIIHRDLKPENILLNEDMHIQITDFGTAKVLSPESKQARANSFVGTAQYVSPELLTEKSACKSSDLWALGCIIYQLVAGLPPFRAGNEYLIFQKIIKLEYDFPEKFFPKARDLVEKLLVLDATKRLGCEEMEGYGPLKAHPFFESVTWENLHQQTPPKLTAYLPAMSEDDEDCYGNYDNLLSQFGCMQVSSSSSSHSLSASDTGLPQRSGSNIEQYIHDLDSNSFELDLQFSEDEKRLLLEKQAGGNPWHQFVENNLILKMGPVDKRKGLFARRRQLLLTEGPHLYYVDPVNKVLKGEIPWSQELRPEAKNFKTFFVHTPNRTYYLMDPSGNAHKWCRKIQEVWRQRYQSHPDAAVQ
Procedure: Incubation proceeded for 15 min. GSK-tide (Cell Signaling) was then added and the reaction allowed to continue for 20 min more before termination in sample buffer and fractionation on SDS gel. […] The in vitro results were validated using a cell culture-based assay, as above. […] Compound was added for 12 hrs. The cells were stimulated with insulin before harvest.
Where quantified, experiments were carried out in triplicate unless otherwise stated. Mean, standard errors and significance levels using Student's t-test were computed in Excel or Prism. […] Western signal intensities were all quantified by densitometry. […] Therefore, where both endpoints were evaluated, normalized values were both included in the quantification as indicated.
Drug screening experiments were performed using a focused library of novel compounds that were synthesized using PS48 as the starting scaffold. Two generations were created based on structure-activity relations (SAR) in an attempt to optimize performance.

[2] = system: Akt phosphorylation in Aβ42-expressing SH-SY5Y cells; assay: Akt activation in Aβ42-expressing cells (adenovirus/doxycycline, insulin-stimulated); assay type: cell-based; conditions: SH-SY5Y; for Phospho-Akt levels (T308 and S473 pooled) in cell-based model of Aβ toxicity, verification of analogs: compound 1 μM, insulin 40 nM last 20 minutes
Procedure: Adv TetOn and TRE-Aβ42 viruses were described previously (Magrane et al., 2005). […] Insulin (10 or 40 nM) was added in the last 20-30 min before harvest. […] Cell extracts were prepared in lysis buffer [20 mM Tris-HCl (pH 7.5), 150 mM NaCl, 1 mM EDTA, 1 mM Na3VO4, 1% NP-40, 10% Glycerol, 1 mM Na4P2O7, 1 μg/ml Leupeptin, 1 μg/ml Pepstatin A, 1 μg/ml Aprotinin, 0.1 mM phenylmethylsulfonyl fluoride, and protease inhibitor cocktail (Roche)] and were stored at −80° C. until use.
Whole-cell extracts were used directly for western blot analysis (20˜30 μg). Extracts from cultured cells prepared in lysis buffer, were diluted into Laemmli sample buffer, heated (95° C., 10 min), cleared by centrifugation, separated on SDS-PAGE and transferred to PVDF membrane (Immobilon-P; Millipore). Membranes were blocked in TBS containing 0.3% Tween-20 and 5% (wt/vol) non-fat dry milk. After incubation with primary antibodies (18 hr at 4° C. in buffer containing 5% bovine serum albumin (BSA) and 0.05% NaN3), blots were washed and incubated in horseradish peroxidase (HRP)-conjugated secondary antibodies (1:2000 dilution; Cell Signaling). Signals were detected using ECL reagents and quantified using a Kodak Image Station 4000R.
[…]. […] […]. […] […].

[3] = system: N2a neural cultures; assay: WST assay toxicity in N2a neural cultures; assay type: cell-based; conditions: result not shown
Source text: . […]. Examples of in vitro assay performance are shown in FIG. 6A and FIG. 6B for compound 508-1-25 (generation 1) and compound 508-1-68 (generation 2). […] The new “hit” compounds also had no direct or indirect effects on potential downstream off-targets such as mTOR (protein levels and phosphorylation status, results not shown). […]

[4] = system: LTP in rat prefrontal cortical slices; assay: Long term potentiation (LTP) in acute prefrontal cortical slices perfused with Aβ42 oligomers; assay type: cell-based; conditions: Aβ42 ADDLs 0.5 μM; PS48 10 μM, at the 1-hour mark after Aβ42 application
Procedure: FIG. 3A. […] LTP was measured as % baseline excitatory postsynaptic potential (EPSP) amplitudes. […] Washout restored LTP (4).
Minor modifications were made to previous published procedures (Marshall et al., 2017; Molina-Luna et al., 2009). Deeply anesthetized rats (pentobarbital, 50 mg/kg) were decapitated, their brains quickly removed and immersed in cold (5-7° C.), oxygenated (95% O2/5% CO2) artificial cerebrospinal fluid (ACSF) containing: 126 mM NaCl, 3 mM KCl, 1.25 mM NaH2PO4, 1 mM MgSO4, 2 mM CaCl2, 26 mM NaHCO3, 10 mM dextrose. […] Control treatment was DMSO in ACSF (artificial cerebrospinal fluid, 20 μM bicuculline). Extracellular postsynaptic field potentials were recorded using an AxoClamp2B amplifier (Axon instruments) and EX1 differential amplifier (Dagan), and digitized at 10 kHz. Data was acquired using Igor Pro (Wave Metrics) and Neuromatic (neuromatic.thinkrandom.com). The stimulus intensity eliciting 50% of the maximum amplitude (˜32 μA) was used for all measurements before and after LTP induction. Baseline amplitudes were recorded for 20-30 minutes using single field stimuli applied every 30 sec to layer IV-V using concentric bipolar electrodes. Following a stable baseline period, LTP was induced by two sets of high-frequency stimulation (HFS) at 100 Hz, 60 μA (twice stimulus intensity), for 1 sec, 20 sec apart. Extracellular postsynaptic field potentials were measured from layer II-III using glass micropipettes filled with 0.9% NaCl. The amplitude rather than the slope of evoked FPs was used as a measure of the population excitatory synaptic response because in the neocortex the initial slope was contaminated by antidromic stimulation. LTP values were expressed as percentage of mean baseline EPSP±SEM. Paired two-tailed t-tests were used for statistical analysis.
LTP was measured as % baseline excitatory postsynaptic potential (EPSP) amplitudes. […] Washout restored LTP.

[5] = system: SH-SY5Y cells; assay: Cell viability, MTT assay, Aβ42-expressing SH-SY5Y cells; conditions: pretreatment before doxycycline; PS48 10 μM or insulin 100 nM; harvested at 48 hrs
Procedure: FIG. 2A. Cell viability as measured by MTT assay.
SH-SY5Y cells were washed twice in warm Dulbecco's phosphate-buffered saline (DPBS) and incubated in 1 ml DMEM containing 0.5 mg (3-[4,5-dimethylthiazol-2-yl]-2,5-diphenyltetrazolium bromide) (MTT or WST; Molecular Probes, Eugene, OR) for 2-3 h at 37° C. and 5% CO2. The medium was aspirated and the cells were washed twice with pre-warmed DPBS. The formazan salts were dissolved in 1 ml pure ethanol before use. Cells were homogenized by repetitive pipetting and centrifuged for 5 min at 4500 rpm, and the supernatant collected. Absorbance was read against an ethanol blank at 590 nm.

[6] = first generation PS48 analogs, Aβ42 ADDL 10 μM, Aβ 42 alone = 0.62 (.16), control normalized to 1.00

Row | Molecule | potency relative to PS48 [1] | GSK peptide and Akt T308 phosphorylations, Westerns of in vitro reaction mixture (FIG. 6A) [1] | fraction of control activity [1, 6] | Phospho-Akt levels (T308 and S473 pooled) in cell-based model of Aβ toxicity, verification of analogs [2] | further results
1 | O=C(/C=C(/CCc1ccc(Cl)cc1)c1ccccc1)NCCO [508-1-7] | increase in potency over PS48 | restored activation as well as or better than PS48 | 0.97 (.10) | – | –
2 | O=C(O)CNC(=O)/C=C(/CCc1ccc(Cl)cc1)c1ccccc1 [508-1-25] | increase in potency over PS48 | restored activation as well as or better than PS48 | 0.99 (.07) | correcting the inhibition of Akt phosphorylation | Phospho-Akt levels (T308 and S473 pooled) in cell-based model of Aβ toxicity, verification of analogs ([2]; listed as 501-1-25): active; LD50 [3]: 350 µM
3 | O=C(O)c1cn(Cc2ccc(OC(F)(F)F)cc2)c2ccccc12 [508-1-31] | increase in potency over PS48 | – | 0.95 (.11) | – | –
4 | COC(=O)CNC(=O)/C=C(\CCc1ccc(Cl)cc1)c1ccccc1 [508-1-68] | increase in potency over PS48 | restored activation as well as or better than PS48 | – | correcting the inhibition of Akt phosphorylation; also recorded: active | fraction of control activity ([1]; second generation PS48 analogs, Aβ 42 alone = 0.72 (.05)): 1.02 (.06)
5 | O=C(O)/C=C(\CCc1ccc(Cl)cc1)c1ccccc1 [PS47, (E)-5-(4-chlorophenyl)-3-phenylpent-2-enoic acid] | – | – | – | – | LTP (% baseline EPSP amplitude) inhibited by Aβ42 oligomers [4]: no effect
6 | insulin: Human insulin, recombinant | – | – | – | – | cell viability (MTT) of amyloid-bearing cells [5]: reverted cells to basal condition or better; Akt activation (pT308) in β-amyloid-expressing cells ([2]; PS48 1 μM or insulin 100 nM added 2 hrs before doxycycline, insulin 40 nM 20 min prior to harvest): restored basal Akt activation levels
